Assays:
S. aureus DSM 20231 [1] = assay: Bliss interaction score (quartile over a dose matrix) (fitness difference); higher = more antagonism (negative = synergy)
Summary of the method: (§1)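 The Bliss score takes observed fitness and subtracts the expected fitness, calculated as a product of single-drug fitness values. Those single-drug values were inferred from the combination data. Fitness is OD595 at entry into stationary phase divided by the plate's robust no-drug mean, capped at 1, and the score is summarised by quartiles across technical, biological and donor/recipient replicates.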

S. aureus Newman [2] = assay: as above
Summary of the method: as §1

S. pneumoniae D39V [3] = assay: as above
Summary of the method: as §1

B. subtilis 168 = assay: as above
Summary of the method: as §1

S. aureus DSM 20231 [4] = assay: fitness (endpoint OD595 vs no drug) (fraction); higher = more growth
Summary of the method: (§2)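 At 37 °C, bacteria in TSB, LB Lennox or CY were grown in 384-well plates from a starting OD595 of 0.01. OD595 was measured every 30 min for 14 h, with the first reading used as background. Fitness is the optical density at the switch to stationary phase as a fraction of the robust mean of no-drug control wells, capped at 1.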

S. aureus Newman [5] = assay: as above
Summary of the method: as §2

S. pneumoniae D39V [6] = assay: as above
Summary of the method: as §2
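Throughout, for Bliss interaction score (quartile over a dose matrix): first quartile when negative (synergy) and third quartile when positive (antagonism).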
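Throughout, for fitness (endpoint OD595 vs no drug): OD595 on entry to stationary phase over no-drug wells; at most 1.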

CC1(C)S[C@@H]2[C@H](NC(=O)[C@H](N)c3ccc(O)cc3)C(=O)N2[C@H]1C(=O)O [Amoxicillin] + CO/N=C(\C(=O)N[C@@H]1C(=O)N2C(C(=O)O)=C(COC(C)=O)CS[C@H]12)c1csc(N)n1 [Cefotaxime]
Settings | Bliss interaction score
B. subtilis 168 | 0.0789
S. aureus DSM 20231 [1] | -0.14
S. aureus Newman [2] | -0.0401
S. pneumoniae D39V [3] | -0.0441

fitness
Settings | first compound 0.0008 µg/mL | first compound 0.0015 µg/mL | first compound 0.003 µg/mL | first compound 0.0625 µg/mL | first compound 0.125 µg/mL | first compound 0.25 µg/mL
S. aureus DSM 20231 [4], partner 0.039 µg/mL | – | – | – | 0.465 | 0.283 | 0.128
S. aureus DSM 20231 [4], partner 0.078 µg/mL | – | – | – | 0.47 | 0.403 | 0.103
S. aureus DSM 20231 [4], partner 0.156 µg/mL | – | – | – | 0.464 | 0.221 | 0.0332
S. aureus DSM 20231 [4], partner 0.312 µg/mL | – | – | – | 0.456 | 0.0746 | 0.0409
S. aureus Newman [5], partner 0.078 µg/mL | – | – | – | 0.728 | 0.711 | 0.626
S. aureus Newman [5], partner 0.156 µg/mL | – | – | – | 0.575 | 0.551 | 0.51
S. aureus Newman [5], partner 0.312 µg/mL | – | – | – | 0.327 | 0.156 | 0.159
S. aureus Newman [5], partner 0.625 µg/mL | – | – | – | 0.191 | 0.0751 | 0.13
S. aureus Newman [5], partner 1.25 µg/mL | – | – | – | 0.0345 | 0.0453 | 0.0376
S. aureus Newman [5], partner 2.5 µg/mL | – | – | – | 0.0349 | 0.0311 | 0.0239
S. pneumoniae D39V [6], partner 0.0018 µg/mL | 0.993 | 0.998 | 0.977 | – | – | –
S. pneumoniae D39V [6], partner 0.0035 µg/mL | 0.986 | 0.967 | 0.889 | – | – | –
S. pneumoniae D39V [6], partner 0.007 µg/mL | 0.882 | 0.882 | 0.762 | – | – | –

one replicate
Settings | fitness
S. aureus DSM 20231 [4], first compound 0.5 µg/mL, partner 0.039 µg/mL | 0.0334
S. aureus DSM 20231 [4], first compound 0.5 µg/mL, partner 0.078 µg/mL | 0.0321
S. aureus DSM 20231 [4], first compound 0.5 µg/mL, partner 0.156 µg/mL | 0.0325
S. aureus DSM 20231 [4], first compound 0.5 µg/mL, partner 0.312 µg/mL | 0.0506
S. aureus Newman [5], first compound 0.0625 µg/mL, partner 0.039 µg/mL | 0.709
S. aureus Newman [5], first compound 0.125 µg/mL, partner 0.039 µg/mL | 0.736
S. aureus Newman [5], first compound 0.25 µg/mL, partner 0.039 µg/mL | 0.749
S. pneumoniae D39V [6], first compound 0.006 µg/mL, partner 0.0018 µg/mL | 0.457
S. pneumoniae D39V [6], first compound 0.006 µg/mL, partner 0.0035 µg/mL | 0.344
S. pneumoniae D39V [6], first compound 0.006 µg/mL, partner 0.007 µg/mL | 0.176

CC1(C)S[C@@H]2[C@H](NC(=O)[C@H](N)c3ccc(O)cc3)C(=O)N2[C@H]1C(=O)O [Amoxicillin] + CO/N=C(\C(=O)N[C@@H]1C(=O)N2C(C(=O)[O-])=C(C[N+]3(C)CCCC3)CS[C@H]12)c1csc(N)n1 [Cefepime]
Settings | Bliss interaction score
B. subtilis 168 | 0.0811
S. aureus DSM 20231 [1] | 0.0643
S. aureus Newman [2] | -0.0522
S. pneumoniae D39V [3] | -0.0542

Settings | fitness
S. aureus DSM 20231 [4], first compound 0.0625 µg/mL, partner 0.125 µg/mL | 0.566
S. aureus DSM 20231 [4], first compound 0.0625 µg/mL, partner 0.25 µg/mL | 0.553
S. aureus DSM 20231 [4], first compound 0.0625 µg/mL, partner 0.5 µg/mL | 0.499
S. aureus DSM 20231 [4], first compound 0.125 µg/mL, partner 0.125 µg/mL | 0.393
S. aureus DSM 20231 [4], first compound 0.125 µg/mL, partner 0.25 µg/mL | 0.477
S. aureus DSM 20231 [4], first compound 0.25 µg/mL, partner 0.125 µg/mL | 0.307
S. aureus DSM 20231 [4], first compound 0.25 µg/mL, partner 0.25 µg/mL | 0.195
S. aureus DSM 20231 [4], first compound 0.25 µg/mL, partner 0.5 µg/mL | 0.0559
S. aureus DSM 20231 [4], first compound 0.5 µg/mL, partner 0.125 µg/mL | 0
S. aureus DSM 20231 [4], first compound 0.5 µg/mL, partner 0.25 µg/mL | 0.0413
S. aureus DSM 20231 [4], first compound 0.5 µg/mL, partner 0.5 µg/mL | 0.0026
S. aureus Newman [5], first compound 0.0625 µg/mL, partner 0.125 µg/mL | 0.829
S. aureus Newman [5], first compound 0.0625 µg/mL, partner 0.25 µg/mL | 0.792
S. aureus Newman [5], first compound 0.0625 µg/mL, partner 0.5 µg/mL | 0.707
S. aureus Newman [5], first compound 0.125 µg/mL, partner 0.125 µg/mL | 0.906
S. aureus Newman [5], first compound 0.125 µg/mL, partner 0.25 µg/mL | 0.788
S. aureus Newman [5], first compound 0.125 µg/mL, partner 0.5 µg/mL | 0.736
S. aureus Newman [5], first compound 0.25 µg/mL, partner 0.125 µg/mL | 0.851
S. aureus Newman [5], first compound 0.25 µg/mL, partner 0.25 µg/mL | 0.725
S. aureus Newman [5], first compound 0.25 µg/mL, partner 0.5 µg/mL | 0.753
S. pneumoniae D39V [6], first compound 0.0008 µg/mL, partner 0.007 µg/mL | 0.977
S. pneumoniae D39V [6], first compound 0.0008 µg/mL, partner 0.014 µg/mL | 0.982
S. pneumoniae D39V [6], first compound 0.0008 µg/mL, partner 0.028 µg/mL | 0.849
S. pneumoniae D39V [6], first compound 0.0015 µg/mL, partner 0.007 µg/mL | 0.989
S. pneumoniae D39V [6], first compound 0.0015 µg/mL, partner 0.0078 µg/mL | ≥ 1
S. pneumoniae D39V [6], first compound 0.0015 µg/mL, partner 0.014 µg/mL | 0.959
S. pneumoniae D39V [6], first compound 0.0015 µg/mL, partner 0.0155 µg/mL | ≥ 1
S. pneumoniae D39V [6], first compound 0.0015 µg/mL, partner 0.028 µg/mL | 0.82
S. pneumoniae D39V [6], first compound 0.0015 µg/mL, partner 0.031 µg/mL | 0.792
S. pneumoniae D39V [6], first compound 0.003 µg/mL, partner 0.007 µg/mL | 0.943
S. pneumoniae D39V [6], first compound 0.003 µg/mL, partner 0.0078 µg/mL | ≥ 1
S. pneumoniae D39V [6], first compound 0.003 µg/mL, partner 0.014 µg/mL | 0.942
S. pneumoniae D39V [6], first compound 0.003 µg/mL, partner 0.0155 µg/mL | 0.907
S. pneumoniae D39V [6], first compound 0.003 µg/mL, partner 0.028 µg/mL | 0.813
S. pneumoniae D39V [6], first compound 0.003 µg/mL, partner 0.031 µg/mL | 0.499

fitness, S. pneumoniae D39V [6], one replicate
Settings | partner 0.0078 µg/mL | partner 0.0155 µg/mL | partner 0.031 µg/mL
first compound 0.0008 µg/mL | ≥ 1 | ≥ 1 | 0.811
first compound 0.006 µg/mL | 0.484 | 0.384 | 0.103

CC1(C)S[C@@H]2[C@H](NC(=O)[C@H](N)c3ccc(O)cc3)C(=O)N2[C@H]1C(=O)O [Amoxicillin] + COc1c(N2C[C@@H]3CCCN[C@@H]3C2)c(F)cc2c(=O)c(C(=O)O)cn(C3CC3)c12 [Moxifloxacin]
Settings | Bliss interaction score
B. subtilis 168 | 0.0481
S. aureus DSM 20231 [1] | -0.0301
S. aureus Newman [2] | 0.046
S. pneumoniae D39V [3] | 0.0639

Settings | fitness
S. aureus DSM 20231 [4], first compound 0.0625 µg/mL, partner 0.0075 µg/mL | 0.51
S. aureus DSM 20231 [4], first compound 0.0625 µg/mL, partner 0.015 µg/mL | 0.482
S. aureus DSM 20231 [4], first compound 0.0625 µg/mL, partner 0.03 µg/mL | 0.403
S. aureus DSM 20231 [4], first compound 0.125 µg/mL, partner 0.0075 µg/mL | 0.382
S. aureus DSM 20231 [4], first compound 0.125 µg/mL, partner 0.015 µg/mL | 0.374
S. aureus DSM 20231 [4], first compound 0.125 µg/mL, partner 0.03 µg/mL | 0.203
S. aureus DSM 20231 [4], first compound 0.25 µg/mL, partner 0.0075 µg/mL | 0.152
S. aureus DSM 20231 [4], first compound 0.25 µg/mL, partner 0.015 µg/mL | 0.119
S. aureus DSM 20231 [4], first compound 0.25 µg/mL, partner 0.03 µg/mL | 0.034
S. aureus DSM 20231 [4], first compound 0.5 µg/mL, partner 0.0075 µg/mL | 0.0102
S. aureus DSM 20231 [4], first compound 0.5 µg/mL, partner 0.015 µg/mL | 0.0002
S. aureus DSM 20231 [4], first compound 0.5 µg/mL, partner 0.03 µg/mL | 0.0026
S. aureus Newman [5], first compound 0.0625 µg/mL, partner 0.0075 µg/mL | 0.715
S. aureus Newman [5], first compound 0.0625 µg/mL, partner 0.015 µg/mL | 0.609
S. aureus Newman [5], first compound 0.125 µg/mL, partner 0.0075 µg/mL | 0.705
S. pneumoniae D39V [6], first compound 0.0008 µg/mL, partner 0.005 µg/mL | 0.968
S. pneumoniae D39V [6], first compound 0.0008 µg/mL, partner 0.01 µg/mL | 0.977
S. pneumoniae D39V [6], first compound 0.0008 µg/mL, partner 0.02 µg/mL | 0.913
S. pneumoniae D39V [6], first compound 0.0015 µg/mL, partner 0.005 µg/mL | 0.972
S. pneumoniae D39V [6], first compound 0.0015 µg/mL, partner 0.01 µg/mL | 0.967
S. pneumoniae D39V [6], first compound 0.0015 µg/mL, partner 0.02 µg/mL | 0.905
S. pneumoniae D39V [6], first compound 0.0015 µg/mL, partner 0.0312 µg/mL | 0.314
S. pneumoniae D39V [6], first compound 0.0015 µg/mL, partner 0.0625 µg/mL | 0.147
S. pneumoniae D39V [6], first compound 0.0015 µg/mL, partner 0.125 µg/mL | 0.0837
S. pneumoniae D39V [6], first compound 0.003 µg/mL, partner 0.005 µg/mL | 0.92
S. pneumoniae D39V [6], first compound 0.003 µg/mL, partner 0.01 µg/mL | 0.92
S. pneumoniae D39V [6], first compound 0.003 µg/mL, partner 0.02 µg/mL | 0.901
S. pneumoniae D39V [6], first compound 0.003 µg/mL, partner 0.0312 µg/mL | 0.277
S. pneumoniae D39V [6], first compound 0.003 µg/mL, partner 0.0625 µg/mL | 0.211
S. pneumoniae D39V [6], first compound 0.003 µg/mL, partner 0.125 µg/mL | 0.0689

one replicate
Settings | fitness
S. aureus DSM 20231 [4], first compound 0.125 µg/mL, partner 0.06 µg/mL | 0.388
S. aureus DSM 20231 [4], first compound 0.125 µg/mL, partner 0.12 µg/mL | 0.0813
S. aureus DSM 20231 [4], first compound 0.25 µg/mL, partner 0.06 µg/mL | 0.112
S. aureus DSM 20231 [4], first compound 0.25 µg/mL, partner 0.12 µg/mL | 0.0126
S. aureus DSM 20231 [4], first compound 0.5 µg/mL, partner 0.06 µg/mL | 0.0085
S. aureus DSM 20231 [4], first compound 0.5 µg/mL, partner 0.12 µg/mL | 0.0156
S. pneumoniae D39V [6], first compound 0.0008 µg/mL, partner 0.0312 µg/mL | 0.209
S. pneumoniae D39V [6], first compound 0.0008 µg/mL, partner 0.0625 µg/mL | 0.167
S. pneumoniae D39V [6], first compound 0.0008 µg/mL, partner 0.125 µg/mL | 0.103
S. pneumoniae D39V [6], first compound 0.006 µg/mL, partner 0.0312 µg/mL | 0.0891
S. pneumoniae D39V [6], first compound 0.006 µg/mL, partner 0.0625 µg/mL | 0.0684
S. pneumoniae D39V [6], first compound 0.006 µg/mL, partner 0.125 µg/mL | 0.0138
